8 molecules from patent US7034000B2, “Peptides derived from the human amyloid precursor protein” (The Brigham and Women's Hospital, Inc., priority 2000, dated 2006) can be followed below.

This data set can be described thus: ferrozine based iron oxidation (ferroxidase) assay. Type of data set: biochemical. Conditions: for Vmax of iron oxidation: first set, 6.5 nM of protein; for Vmax, rate of iron oxidation: another set of ferrozine-based assays, 0.5 μM each; for ferroxidase activity when synthesized as a distinct peptide: statement in summary, no values. As for the experimental part: Computer-based alignments of APP and H-ferritin were run using the Gap and Bestfit sequence alignment programs for Vax software. […] Bovine serum albumin (BSA) served as a negative control for these experiments since 6.5 μM BSA provided a 5-fold lower apparent rate of iron oxidation (an apparent reaction rate of 0.1 μM iron oxidized per minute). It was concluded that purified, secreted APP ectodomain specifically catalyzes the oxidation of 100-fold more iron per minute than the amount of APP present. This is an indication that APP harbors one or more sites for catalytic iron oxidation.
Using synthetic peptides, it was confirmed that sequences overlapping the newly identified FOX-1 domain in APP function as intrinsic ferroxidases. A peptide designated as “A2” (coding for residues 316 to 337 in APP-695)was tested. […] Ceruloplasmin (Cp) was used as a positive control since Cp is a known copper-dependent iron oxidase. […] The standard error for each of these reactions was less than 5%.
The known RERMS domain of APP (319 to 335 with respect to APP-695) is a cytoprotective region of APP and overlaps the A2 to peptide described above. […] The 827 sequence is HRBRMSQVMREWEEAERQAKNL (SEQ ID NO: 6), encoding 9 amino terminal amino acids that overlap with the RERMS peptide. In addition, 827 has 13 unique amino acids that align with the ferritin iron oxidase domain, as present in FOX-1. […] It was concluded that peptides spanning sequences from 316 to 346 of APP-695 can be used as agents to protect cells from iron catalyzed cellular damage.

For “APP: purified, secreted human amyloid precursor protein ectodomain”, the “Vmax of iron oxidation” value came to 0.5 µM/min. Under “purified, secreted APP ectodomain”, the “iron oxidized per minute relative to the amount of APP present” value is recorded as 100 fold. In the case of “HRERMSQVMREWEEAERQAKNL (listed as Homo sapiens) [827 peptide, first 13 N-terminal amino acids of FOX-1 fused to nine amino acids from the RERMS domain of APP-695 (327–348)]”, the “Vmax, rate of iron oxidation” value came to 7.36 µM/min. For “DGDEVEEEAEPYEEATERTTSIA (listed as Homo sapiens) [FOX-2, peptide corresponding to the complete FOX-2 domain, between amino acids 250 and 273 in APP-695]”, the “ferroxidase activity when synthesized as a distinct peptide” value is “has ferroxidase activity”. The same measure, in the same setting: to “REWEEAERQAKNLPKADKKAVIQH (listed as Homo sapiens) [FOX-1]” belongs “has ferroxidase activity”. For the molecule “A2 peptide: synthetic peptide coding for residues 316 to 337 in APP-695, overlaps RERMS domain (CAPFFYGGCGGNRNNFDTEEYC; APP695; UniProt P05067 316-337, looked up, fragment)”, the “Vmax, rate of iron oxidation” value was found to be 2.78 µM/min. For the same molecule, the “rate of iron oxidation compared with BSA or RNase-A” value (0.5 μM) is recorded as “significantly higher”. Under “second set, 0.5 μM peptide”, the “iron oxidase activity Vmax” value is recorded as 2.96 μM/min/0.5 μM peptide.

B1: RNase-A: negative control protein (protein, UniProt P61823 27-150, looked up)
Ribonuclease pancreatic: KETAAAKFERQHMDSSTSAASSSNYCNQMMKSRNLTKDRCKPVNTFVHESLADVQAVCSQKNVACKNGQTNCYQSYSTMSITDCRETGSSKYPNCAYKTTQANKHIIVACEGNPYVPVHFDASV
Take B1: the apparent Vmax (second set, 0.5 μM, n=6, negative control) is 1.96 µM iron/min/0.5 µM peptide.

B2: RNaseTI: control protein in the second set of ferrozine-based assays (protein, UniProt P00651 27-130, looked up)
Guanyl-specific ribonuclease …: ACDYTCGSNCYSSSDVSTAQAAGYQLHEDGETVGSNSYPHKYNNYEGFDFSVSSPYYEWPILSSGDVYSGGSPGADRVVFNENNQLAGVITHTGASGNNFVECT
Take B2: the “Vmax, rate of iron oxidation” value was found to be 1.05 µM/min.

B3: Ceruloplasmin: known copper-dependent iron oxidase (ferroxidase), positive control (protein, UniProt P00450 20-1065, looked up)
Ceruloplasmin: KEKHYYIGIIETTWDYASDHGEKKLISVDTEHSNIYLQNGPDRIGRLYKKALYLQYTDETFRTTIEKPVWLGFLGPIIKAETGDKVYVHLKNLASRPYTFHSHGITYYKEHEGAIYPDNTTDFQRADDKVYPGEQYTYMLLATEEQSPGEGDGNCVTRIYHSHIDAPKDIASGLIGPLIICKKDSLDKEKEKHIDREFVVMFSVVDENFSWYLEDNIKTYCSEPEKVDKDNEDFQESNRMYSVNGYTFGSLPGLSMCAEDRVKWYLFGMGNEVDVHAAFFHGQALTNKNYRIDTINLFPATLFDAYMVAQNPGEWMLSCQNLNHLKAGLQAFFQVQECNKSSSKDNIRGKHVRHYYIAAEEIIWNYAPSGIDIFTKENLTAPGSDSAVFFEQGTTRIGGSYKKLVYREYTDASFTNRKERGPEEEHLGILGPVIWAEVGDTIRVTFHNKGAYPLSIEPIGVRFNKNNEGTYYSPNYNPQSRSVPPSASHVAPTETFTYEWTVPKEVGPTNADPVCLAKMYYSAVEPTKDIFTGLIGPMKICKKGSLHANGRQKDVDKEFYLFPTVFDENESLLLEDNIRMFTTAPDQVDKEDEDFQESNKMHSMNGFMYGNQPGLTMCKGDSVVWYLFSAGNEADVHGIYFSGNTYLWRGERRDTANLFPQTSLTLHMWPDTEGTFNVECLTTDHYTGGMKQKYTVNQCRRQSEDSTFYLGERTYYIAAVEVEWDYSPQREWEKELHHLQEQNVSNAFLDKGEFYIGSKYKKVVYRQYTDSTFRVPVERKAEEEHLGILGPQLHADVGDKVKIIFKNMATRPYSIHAHGVQTESSTVTPTLPGETLTYVWKIPERSGAGTEDSACIPWAYYSTVDQVKDLYSGLIGPLIVCRRPYLKVFNPRRKLEFALLFLVFDENESWYLDDNIKTYSDHPEKVNKDDEEFIESNKMHAINGRMFGNLQGLTMHVGDEVNWYLMGMGNEIDLHTVHFHGHSFQYKHRGVYSSDVFDIFPGTYQTLEMFPRTPGIWLLHCHVTDHIHAGMETTYTVLQNEDTKSG
Take B3: the “Vmax, rate of iron oxidation” value is 6.41 µM/min and the “Vmax of iron oxidation” value was 5 µM/min. The reaction velocity (Vmax) (second set, 0.5 μM protein, n=6, positive control) was 4.2 µM iron/min/0.5 µM protein.
